Measured values published in US20230081986A1, “METHOD AND REAGENTS TO IMPROVE NONANIMAL OCULAR TOXICITY TESTS” (Lebrun Labs LLC, priority 2021, published 2023).

What was measured:
rabbit cornea = assay: Cornea exposure for different times, with and without the esterase inhibitor ebelactone; conditions: for state of the cornea: 6-minute exposure
Protocol: FIG. 2 depicts the effects of ebelactone on rabbit cornea.
To test this hypothesis, we incubated corneas with 100 µL of the test chemical for different exposure times and observed that methyl cyanoacetate produced a toxic effect on the eye after 6 minutes of exposure. To confirm that this increased toxicity was metabolically related, eyes were treated with ebelactone, an inhibitor of nonspecific esterases. […] Based on these findings, we updated the IVD EIT method to include the following: Each chemical is first tested using a direct 1-minute application to the eye; if negative, the chemical is then retested for 6 minutes using the metabolic test (META). All of the steps of the META test are the same as the direct test except for the dosing step. For the META, 100 µL of tear solution (saline with ascorbic acid, protein) is first added to the dosing ring, followed by the addition of 100 µL of the material to be tested.

[1] = literature review [11]; cited from earlier work

SMILES: COC(=O)CC#N [methyl cyanoacetate]
- state of the cornea (rabbit cornea; in the presence of ebelactone): somewhat swollen but there are mostly viable cells
- state of the cornea (rabbit cornea; without ebelactone): swollen with no viable cells
- effect on the eye (rabbit cornea; 100 µL, after 6 minutes of exposure): toxic effect
- classification by most nonanimal tests [1]: misclassified as FN
